The record followed here is patent US9896418B2, “Aryl ethers and uses thereof” (Peloton Therapeutics, Inc., priority 2013, dated 2018).

pIC50: −log10 of the molar value.

In this test the test system is HIF-2α HIS TAG-PASB Domain. The experiment in a line: HIF-2α Scintillation Proximity Assay (SPA). It is filed as binding. On the procedure:
The percent inhibition was determined and IC50 values were calculated using the Dotmatics system based on the following equation: % inhibition=[(high control−sample)/(high control−low control)]×100.
(Scintillation proximity formats need no separation of bound from free tracer.)
What is called pIC50 is the negative decadic logarithm of the IC50, by convention in mol/L. Molecule `N#Cc1cc(F)cc(Oc2ccc(S(=O)(=O)C(F)(F)F)c3c2[C@@H](N)C[C@H]3O)c1` (relative stereo) [Compound 279, 3-((cis-3-amino-1-hydroxy-7-((trifluoromethyl)sulfonyl)-2,3-dihydro-1H-inden-4-yl)oxy)-5-fluorobenzonitrile] gave a pIC50 of 5.29.

On to `CS(=O)(=NC#N)c1ccc(Oc2cncc(C#N)c2)c2c1[C@H](O)C(F)(F)[C@@H]2F` (single isomer, unassigned) [Compound 319], for which the negative logarithm of the IC50 (pIC50) is 7.85.

As to `CS(=O)(=NC#N)c1ccc(Oc2cncc(C#N)c2)c2c1[C@H](O)C(F)(F)[C@@H]2F` (single isomer, unassigned) [Compound 321], the negative-log IC50 (pIC50) is 7.49.

On to `N#Cc1cc(F)cc(Oc2ccc(S(=N)(=O)CF)c3c2CC(F)(F)[C@H]3O)c1` (single isomer, unassigned) [Example 274], for which the pIC50 was 7.03. The result for `N#CN=S(=O)(CF)c1ccc(Oc2cc(F)cc(C#N)c2)c2c1[C@H](O)C(F)(F)C2` (single isomer, unassigned) [Example 285] reads 7.15; that for `CS(=O)(=NC#N)c1ccc(Oc2cc(F)cc(C#N)c2)c2c1[C@H](O)C(F)(F)[C@@H]2F` (single isomer, unassigned) [Example 316], more than 8.30; that for `O=S(=O)(c1ccc(Oc2cc(F)cc(F)c2)c2c1[C@H](O)CC2)C(F)F` [Compound 2, (R)-7-((Difluoromethyl)sulfonyl)-4-(3,5-difluorophenoxy)-2,3-dihydro-1H-inden-1-ol], more than 8.30. `O=S(=O)(c1ccc(Oc2cncc(Cl)c2)c2c1[C@H](O)CC2)C(F)F` [Compound 3, (R)-4-((5-chloropyridin-3-yl)oxy)-7-((difluoromethyl)sulfonyl)-2,3-dihydro-1H-inden-1-ol] showed a pIC50 of 6.47. `N#Cc1cncc(Oc2ccc(S(=O)(=O)C(F)F)c3c2CC[C@H]3O)c1` [Compound 4, (R)-5-((7-((Difluoromethyl)sulfonyl)-1-hydroxy-2,3-dihydro-1H-inden-4-yl)oxy)nicotinonitrile] gave a negative logarithm of the IC50 (pIC50) of 5.48.

Molecule `O=S(=O)(c1ccc(Oc2cncc(F)c2)c2c1[C@H](O)CC2)C(F)F` [Compound 5, (R)-7-((difluoromethyl)sulfonyl)-4-((5-fluoropyridin-3-yl)oxy)-2,3-dihydro-1H-inden-1-ol] showed a pIC50 of 6.05. Regarding `O=S(=O)(c1ccc(Oc2cc(F)cc(Cl)c2)c2c1C(O)C(F)(F)C2)C(F)F` (centres unmarked) [Compound 8, 4-(3-chloro-5-fluoro-phenoxy)-7-(difluoromethylsulfonyl)-2,2-difluoro-indan-1-ol], the pIC50 was more than 8.30. For the molecule `O=S(=O)(c1ccc(Oc2cc(F)cc(F)c2)c2c1C(O)C(F)(F)C2)C(F)F` (centres unmarked) [Compound 9, 7-(difluoromethylsulfonyl)-4-(3,5-difluorophenoxy)-2,2-difluoro-indan-1-ol], the negative logarithm of the IC50 (pIC50) was more than 8.30.

`C=CCC1(O)c2c(S(=O)(=O)C(F)F)ccc(Oc3cc(F)cc(F)c3)c2CC1(F)F` (centres unmarked) [Compound 12, 1-allyl-7-(difluoromethylsulfonyl)-4-(3,5-difluorophenoxy)-2,2-difluoro-indan-1-ol] had a pIC50 of 5.01.

Consider `CC1(O)c2c(S(=O)(=O)C(F)F)ccc(Oc3cc(F)cc(C#N)c3)c2CC1(F)F` (centres unmarked) [Compound 13, 3-[7-(difluoromethylsulfonyl)-2,2-difluoro-1-hydroxy-1-methyl-indan-4-yl]oxy-5-fluoro-benzonitrile], for which the negative logarithm of the IC50 (pIC50) is 5.18. In the case of `N#CCS(=O)(=O)c1ccc(Oc2cc(F)cc(F)c2)c2c1C(O)CC2` (centres unmarked) [Compound 14, 2-[7-(3,5-difluorophenoxy)-3-hydroxy-indan-4-yl]sulfonylacetonitrile], the pIC50 is 5.28. The result for `O=C1CCc2c(Oc3cc(F)cc(Cl)c3)ccc(S(=O)(=O)C(F)F)c21` [Compound 18, 4-(3-chloro-5-fluorophenoxy)-7-((difluoromethyl)sulfonyl)-2,3-dihydro-1H-inden-1-one] reads 6.92; that for `NC1CCc2c(Oc3cc(F)cc(F)c3)ccc(S(=O)(=O)C(F)F)c21` (centres unmarked) [Compound 19, 7-((difluoromethyl)sulfonyl)-4-(3,5-difluorophenoxy)-2,3-dihydro-1H-inden-1-amine], 4.42; that for `O=S(=O)(c1ccc(Oc2cc(F)cc(F)c2)c2c1CCC2)C(F)F` [Compound 20, 4-((Difluoromethyl)sulfonyl)-7-(3,5-difluorophenoxy)-2,3-dihydro-1H-indene], 5.96. Then `O=S(=O)(c1ccc(Oc2cc(F)cc(F)c2)c2c1C=CC2)C(F)F` [Compound 21, 4-((Difluoromethyl)sulfonyl)-7-(3,5-difluorophenoxy)-1H-indene], with 6.85; and `O=S(=O)(c1ccc(Oc2cc(F)cc(F)c2)c2c1C(CO)CC2)C(F)F` (centres unmarked) [Compound 24, (7-((Difluoromethyl)sulfonyl)-4-(3,5-difluorophenoxy)-2,3-dihydro-1H-inden-1-yl)methanol], with 6.04; and `N#Cc1c(Oc2cc(F)cc(Cl)c2)ccc(S(=O)(=O)C(F)(F)F)c1Cl` [Compound 28, 2-Chloro-6-(3-chloro-5-fluorophenoxy)-3-((trifluoromethyl)sulfonyl)benzonitrile], with 4.30. `N#Cc1cc(F)cc(Oc2ccc(S(=O)(=O)C(F)(F)F)c(Cl)c2C#N)c1` [Compound 29, 2-Chloro-6-(3-cyano-5-fluorophenoxy)-3-((trifluoromethyl)sulfonyl)benzonitrile] showed a pIC50 of 7.66. `Cc1c(S(=O)(=O)C(F)F)ccc(Oc2cc(F)cc(Cl)c2)c1C#N` [Compound 32, 6-(3-Chloro-5-fluorophenoxy)-3-((difluoromethyl)sulfonyl)-2-methylbenzonitrile] showed a pIC50 of 7.74. `Cc1c(S(=O)(=O)C(F)F)ccc(Oc2cc(F)cc(C#N)c2)c1C#N` [Compound 33, 6-(3-Cyano-5-fluorophenoxy)-3-((difluoromethyl)sulfonyl)-2-methylbenzonitrile] showed a pIC50 of 6.80. For the molecule `Cc1c(S(=O)(=O)C(F)F)ccc(Oc2cc(F)cc(F)c2)c1C#N` [Compound 34, 3-((Difluoromethyl)sulfonyl)-6-(3,5-difluorophenoxy)-2-methylbenzonitrile], the pIC50 was more than 8.30. The result for `CN(C)Cc1c(S(=O)(=O)C(F)F)ccc(Oc2cc(F)cc(Cl)c2)c1C#N` [Compound 36, 6-(3-Chloro-5-fluorophenoxy)-3-((difluoromethyl)sulfonyl)-2-((dimethylamino)methyl)benzonitrile] reads 4.77. For the molecule `Cc1c([S+]([O-])C(F)F)ccc(Oc2cc(F)cc(Cl)c2)c1C#N` (centres unmarked) [Compound 37, 6-(3-Chloro-5-fluorophenoxy)-3-((difluoromethyl)sulfinyl)-2-methylbenzonitrile], the pIC50 was 5.17. Then `O=S(=O)(c1ccc(Oc2cc(F)cc(Cl)c2)c(Cl)c1Cn1ccnc1)C(F)F` [Compound 45, 1-(2-Chloro-3-(3-chloro-5-fluorophenoxy)-6-((difluoromethyl)sulfonyl)benzyl)-1H-imidazole], with 5.21. In turn, `O=S(=O)(c1ccc(Oc2cc(F)cc(Cl)c2)c(Cl)c1CNCC(F)(F)F)C(F)F` [Compound 47, N-(2-Chloro-3-(3-chloro-5-fluorophenoxy)-6-((difluoromethyl)sulfonyl)benzyl)-2,2,2-trifluoroethan-1-amine] had a negative logarithm of the IC50 (pIC50) of 5.05. For `O=S(=O)(c1ccc(Oc2cc(F)cc(Cl)c2)c(Cl)c1CNC1CCOCC1)C(F)F` [Compound 48, N-(2-Chloro-3-(3-chloro-5-fluorophenoxy)-6-((difluoromethyl)sulfonyl)benzyl)tetrahydro-2H-pyran-4-amine], the negative-log IC50 (pIC50) is 6.04. Then `O=S(=O)(c1ccc(Oc2cc(F)cc(Cl)c2)c(Cl)c1CNC1CCCOC1)C(F)F` (centres unmarked) [Compound 49, N-(2-Chloro-3-(3-chloro-5-fluorophenoxy)-6-((difluoromethyl)sulfonyl)benzyl)tetrahydro-2H-pyran-3-amine], with 4.89. With `Cc1c(S(C)(=O)=O)ccc(Oc2cc(F)cc(C#N)c2)c1C#N` [Compound 51, 6-(3-Cyano-5-fluorophenoxy)-2-methyl-3-(methylsulfonyl)benzonitrile], the negative logarithm of the IC50 (pIC50) is 5.70.

Regarding `Cc1c(S(C)(=O)=O)ccc(Oc2cc(F)cc(F)c2)c1C#N` [Compound 52, 6-(3,5-Difluorophenoxy)-2-methyl-3-(methylsulfonyl)benzonitrile], the negative logarithm of the IC50 (pIC50) was 7.34. Then `Cc1c(S(C)(=O)=O)ccc(Oc2cc(F)cc(Cl)c2)c1C(F)F` [Compound 53, 1-(3-Chloro-5-fluorophenoxy)-2-(difluoromethyl)-3-methyl-4-(methylsulfonyl)benzene], with 6.48. The result for `N#Cc1ccc(Oc2cc(F)cc(F)c2)c2c1[C@H](O)CC2` [Compound 66, (R)-7-(3,5-Difluorophenoxy)-3-hydroxy-2,3-dihydro-1H-indene-4-carbonitrile] reads 5.30. Molecule `CS(=O)(=NC#N)c1ccc(Oc2cc(F)cc(C#N)c2)c2c1C(O)CC2` (centres unmarked) [Compound 68] had a negative-log IC50 (pIC50) of 5.51. Molecule `N=S(=O)(c1ccc(Oc2cc(F)cc(Cl)c2)c(Br)c1)C(F)F` (centres unmarked) [Compound 69, 2-bromo-1-(3-chloro-5-fluorophenoxy)-4-((difluoromethyl)sulfonimidoyl)benzene] showed a pIC50 of 5.89.

The molecule `CN=S(=O)(c1ccc(Oc2cc(F)cc(Cl)c2)c(Br)c1)C(F)F` (stereo not drawn) [Compound 70, N-methyl-2-bromo-1-(3-chloro-5-fluorophenoxy)-4-(S-(difluoromethyl)sulfonimidoyl)benzene] gave a pIC50 of 6.11. Then `N=S(=O)(c1ccc(Oc2cc(F)cc(Cl)c2)c(Br)c1)C(F)(F)F` (centres unmarked) [Compound 71, 2-bromo-1-(3-chloro-5-fluorophenoxy)-4-((trifluoromethyl)sulfonimidoyl)benzene], with 6.19; and `N#Cc1cc(S(=N)(=O)C(F)(F)F)ccc1Oc1cc(F)cc(Cl)c1` (centres unmarked) [Compound 72, 2-(3-chloro-5-fluorophenoxy)-5-((trifluoromethyl)sulfonimidoyl)benzonitrile], with 6.29; and `N#Cc1cc(F)cc(Oc2ccc(S(=N)(=O)C(F)(F)F)cc2C#N)c1` (centres unmarked) [Compound 73, 2-(3-cyano-5-fluorophenoxy)-5-((trifluoromethyl)sulfonimidoyl)benzonitrile], with 5.85.
